Laboratory results: ChEMBL document CHEMBL1765080, “Synthesis, biological evaluation and molecular modeling of novel triazole-containing berberine derivatives as acetylcholinesterase and β-amyloid aggregation inhibitors” (Bioorg Med Chem, 2011)

Legend:
[1] = Inhibition of amyloid-beta (1 to 42) aggregation at 20 uM after 48 hrs by fluorescence analysis using thioflavin T
[2] = Ratio of IC50 for equine serum Butyrylcholinesterase to IC50 for electric eel Acetylcholinesterase
[3] = target: Acetylcholinesterase (Electrophorus electricus, UniProt O42275); experiment: Inhibition of electric eel Acetylcholinesterase
[4] = target: Butyrylcholinesterase (Equus caballus, UniProt Q9N1N9); experiment: Inhibition of equine serum Butyrylcholinesterase
Sequence of Butyrylcholinesterase (Q9N1N9 whole entry): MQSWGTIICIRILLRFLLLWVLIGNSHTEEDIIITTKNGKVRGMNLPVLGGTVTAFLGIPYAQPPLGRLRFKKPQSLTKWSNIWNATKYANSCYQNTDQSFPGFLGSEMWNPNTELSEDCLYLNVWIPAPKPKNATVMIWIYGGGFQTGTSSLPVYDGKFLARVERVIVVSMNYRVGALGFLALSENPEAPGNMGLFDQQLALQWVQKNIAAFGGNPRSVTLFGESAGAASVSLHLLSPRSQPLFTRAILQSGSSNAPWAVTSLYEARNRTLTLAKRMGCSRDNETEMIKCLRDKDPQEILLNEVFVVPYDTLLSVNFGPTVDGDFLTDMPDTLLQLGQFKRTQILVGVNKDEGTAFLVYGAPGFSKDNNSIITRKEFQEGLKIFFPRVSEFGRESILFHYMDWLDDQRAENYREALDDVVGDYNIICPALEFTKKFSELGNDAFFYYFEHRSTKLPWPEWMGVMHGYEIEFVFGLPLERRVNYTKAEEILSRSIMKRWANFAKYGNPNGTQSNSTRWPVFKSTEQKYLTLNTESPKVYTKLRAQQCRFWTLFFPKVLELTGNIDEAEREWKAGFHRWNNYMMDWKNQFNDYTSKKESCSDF

Sequence of Acetylcholinesterase (O42275 whole entry): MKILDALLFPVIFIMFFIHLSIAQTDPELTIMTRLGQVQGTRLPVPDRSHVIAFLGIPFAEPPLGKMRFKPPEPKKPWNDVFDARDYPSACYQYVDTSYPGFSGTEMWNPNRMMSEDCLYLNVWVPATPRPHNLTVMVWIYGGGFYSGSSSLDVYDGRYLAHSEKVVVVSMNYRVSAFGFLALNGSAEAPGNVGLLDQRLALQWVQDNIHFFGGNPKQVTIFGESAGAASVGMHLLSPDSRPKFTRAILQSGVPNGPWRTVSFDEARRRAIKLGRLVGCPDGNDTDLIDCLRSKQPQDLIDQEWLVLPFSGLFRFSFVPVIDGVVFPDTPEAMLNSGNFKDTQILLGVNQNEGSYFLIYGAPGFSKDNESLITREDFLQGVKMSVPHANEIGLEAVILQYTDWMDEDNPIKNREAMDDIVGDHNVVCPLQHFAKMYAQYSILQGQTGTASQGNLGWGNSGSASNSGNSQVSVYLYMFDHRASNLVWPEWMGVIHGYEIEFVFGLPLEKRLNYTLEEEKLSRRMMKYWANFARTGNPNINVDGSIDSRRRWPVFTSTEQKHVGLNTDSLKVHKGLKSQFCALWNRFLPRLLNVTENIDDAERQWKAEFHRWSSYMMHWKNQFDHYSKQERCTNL

CCCCc1cn(CCCCOc2c(OC)ccc3cc4[n+](cc23)CCc2cc3c(cc2-4)OCO3)nn1
inhibition [1]: 77.9%
Ratio IC50 [2]: 10
IC50 [3]: 0.201 µM
IC50 [4]: 2.02 µM

CCCN(CCC)c1cn(CCCCOc2c(OC)ccc3cc4[n+](cc23)CCc2cc3c(cc2-4)OCO3)nn1
inhibition [1]: 62.5%
Ratio IC50 [2]: 17.7
IC50 [3]: 0.27 µM
IC50 [4]: 4.77 µM

CCCN(CCC)c1cn(CCCOc2c(OC)ccc3cc4[n+](cc23)CCc2cc3c(cc2-4)OCO3)nn1
Ratio IC50 [2]: 11.3
IC50 [3]: 0.14 µM
IC50 [4]: 1.58 µM

COc1ccc2cc3[n+](cc2c1OC)CCc1cc2c(cc1-3)OCO2
inhibition [1]: 36.3%

CCCCN(CCCC)c1cn(CCCCOc2c(OC)ccc3cc4[n+](cc23)CCc2cc3c(cc2-4)OCO3)nn1
inhibition [1]: 71.7%
Ratio IC50 [2]: 11.6
IC50 [3]: 0.469 µM
IC50 [4]: 5.46 µM

CCCCc1cn(CCCOc2c(OC)ccc3cc4[n+](cc23)CCc2cc3c(cc2-4)OCO3)nn1
Ratio IC50 [2]: 24.6
IC50 [3]: 0.165 µM
IC50 [4]: 4.06 µM

COc1ccc2cc3[n+](cc2c1OCCCCn1cc(-c2ccccc2)nn1)CCc1cc2c(cc1-3)OCO2
inhibition [1]: 60.6%
Ratio IC50 [2]: 1.14
IC50 [3]: 1.32 µM
IC50 [4]: 1.5 µM

CCCCN(CCCC)c1cn(CCCOc2c(OC)ccc3cc4[n+](cc23)CCc2cc3c(cc2-4)OCO3)nn1
Ratio IC50 [2]: 8.48
IC50 [3]: 0.243 µM
IC50 [4]: 2.06 µM

COc1ccc2cc3[n+](cc2c1OCCCn1cc(-c2ccccc2)nn1)CCc1cc2c(cc1-3)OCO2
Ratio IC50 [2]: 7.13
IC50 [3]: 0.31 µM
IC50 [4]: 2.21 µM
